Earlier results in US20130164384A1, “METHODS OF TREATING BOWEL DISEASES BY ADMINISTERING A BOWEL CLEANSER AND AN ANTIBIOTIC” (Salix Pharmaceuticals, Ltd., priority 2008, published 2013).
Like-named read-outs stand apart in the source and are kept apart here.

Details: cited from earlier work

## CC(=O)Oc1ccc(C(c2ccc(OC(C)=O)cc2)c2ccccn2)cc1 [Bisacodyl]
enemas
  Time to produce a bowel movement: about 20 minutes
suppositories
  Time to produce a bowel movement: about an hour
